Assay results as given in patent US10174053B2, “2 substituted cephem compounds” (Glaxo Group Limited, priority 2012, dated 2019).

Columns and labels:
Assay in all cases: In vitro antimicrobial activity, MIC by broth microdilution (CLSI)
Assay type in all cases: cell-based
A. baumannii JMI7 = details: Acinetobacter baumannii, JMI7; PER-1, OXA-23, 51, ESBL and OXA-type carbapenemase producing strain; 5×10^5 cfu/mL; cation-adjusted Iso-Sensitest broth containing human Apo-transferrin; read-out: Minimum Inhibitory Concentration (MIC) A. baumannii JMI:7
Description: (§1) Compound (I) of the invention was evaluated for in vitro antimicrobial activity thereof.
(§2) Measurement of Minimum Inhibitory Concentration (MIC: μg/mL) was conducted according to CLSI (Clinical and Laboratory Standards Institute) method, and the amount of bacteria for inoculation was 5×10^5 cfu/mL, and cation-adjusted Iso-Sensitest broth containing human Apo-transferrin was used as a test medium, and the experiment was conducted using broth microdilution method. The bacteria used are listed below.

K. pneumoniae SR01358 = details: Klebsiella pneumoniae, SR01358; KPC-2, ESBL and KPC-type carbapenemase producing strain; 5×10^5 cfu/mL; cation-adjusted Iso-Sensitest broth containing human Apo-transferrin; read-out: Minimum Inhibitory Concentration (MIC) K. pneumoniae SR01358
Description: as §1, §2

E. Coli JMI1890 = details: Escherichia coli; PER-1, TEM-1, ESBL producing strain; 5×10^5 cfu/mL; cation-adjusted Iso-Sensitest broth containing human Apo-transferrin; read-out: Minimum Inhibitory Concentration (MIC) E. Coli JMI:1890
Description: as §1, §2

A. baumannii JMI2346 = details: Acinetobacter baumannii, JMI2346; OXA-51, TEM, ESBL and OXA-type carbapenemase producing strain; 5×10^5 cfu/mL; cation-adjusted Iso-Sensitest broth containing human Apo-transferrin; read-out: Minimum Inhibitory Concentration (MIC) A. baumannii JMI:2346
Description: as §1, §2

| Structure (SMILES) | MIC (A. baumannii JMI7) [µg/mL] | MIC (K. pneumoniae SR01358) [µg/mL] | MIC (E. Coli JMI1890) [µg/mL] | MIC (A. baumannii JMI2346) [µg/mL] |
| --- | --- | --- | --- | --- |
| C[C@@H]1S[C@@H]2[C@H](NC(=O)/C(=N\OC(C)(C)C(=O)[O-])c3csc(N)n3)C(=O)N2C(C(=O)[O-])=C1C[N+]1(C)[C@@H]2CC[C@H]1C[C@@H](NC(=O)c1cc(O)c(O)c(Cl)c1)C2.[Na+] (stereo partly shown) [Compound I-66] | 0.25 | ≤ 0.031 | 0.063 | 1 |
| C[C@@H]1S[C@@H]2[C@H](NC(=O)/C(=N\OC(C)(C)C(=O)[O-])c3csc(N)n3)C(=O)N2C(C(=O)[O-])=C1C[N+]12CCC(CC1)N(C(=O)c1cc(O)c(O)c(F)c1)CC2.[Na+] [Compound I-67] | 1 | ≤ 0.031 | 0.25 | 2 |
| C[C@@H]1S[C@@H]2[C@H](NC(=O)/C(=N\OC(C)(C)C(=O)[O-])c3csc(N)n3)C(=O)N2C(C(=O)[O-])=C1C[N+]12CCC[C@H]1CN(C(=O)c1cc(O)c(O)c(F)c1)CC2.[Na+] (stereo partly shown) [Compound I-68] | 2 | ≤ 0.031 | 0.5 | 8 |
| C[C@@H]1S[C@@H]2[C@H](NC(=O)/C(=N\OC(C)(C)C(=O)[O-])c3csc(N)n3)C(=O)N2C(C(=O)[O-])=C1C[N+]1(C)C[C@H]2CN(C(=O)c3cc(O)c(O)c(F)c3)C[C@H]2C1.[Na+] (stereo partly shown) [Compound I-69] | 1 | ≤ 0.031 | 0.25 | 8 |
| C[C@@H]1S[C@@H]2[C@H](NC(=O)/C(=N\OC(C)(C)C(=O)[O-])c3csc(N)n3)C(=O)N2C(C(=O)[O-])=C1C[N+]1(C)[C@@H]2CC[C@H]1C[C@@H](NC(=O)c1cc(O)c(O)c(F)c1)C2.[Na+] (stereo partly shown) [Compound I-71] | 0.5 | ≤ 0.031 | 0.25 | 2 |
| C[C@@H]1S[C@@H]2[C@H](NC(=O)/C(=N\OC(C)(C)C(=O)[O-])c3csc(N)n3)C(=O)N2C(C(=O)[O-])=C1C[N+]12CCC(CNC(=O)c3cc(O)c(O)c(F)c3)(CC1)CC2.[Na+] [Compound I-72] | 1 | ≤ 0.031 | 0.125 | 4 |
| C[C@@H]1S[C@@H]2[C@H](NC(=O)/C(=N\OC(C)(C)C(=O)[O-])c3csc(N)n3)C(=O)N2C(C(=O)[O-])=C1C[N+]12CCC(CN3C(=O)c4cc(O)c(O)cc4C3=O)(CC1)CC2.[Na+] [Compound I-73] | 0.25 | ≤ 0.031 | 0.063 | 2 |
| C[C@@H]1S[C@@H]2[C@H](NC(=O)/C(=N\OC(C)(C)C(=O)[O-])c3csc(N)n3)C(=O)N2C(C(=O)[O-])=C1C[N+]1(CCNC(=O)C(=O)c2ccc(O)c(O)c2Cl)CCCC1.[Na+] [Compound I-74] | 0.25 | ≤ 0.031 | 0.25 | 4 |
| C[C@@H]1S[C@@H]2[C@H](NC(=O)/C(=N\OC(C)(C)C(=O)[O-])c3csc(N)n3)C(=O)N2C(C(=O)[O-])=C1C[N+]12CCC(CC1)N(C(=O)C(=O)c1ccc(O)c(O)c1Cl)CC2.[Na+] [Compound I-75] | 0.25 | ≤ 0.031 | 0.125 | 4 |
| C[C@@H]1S[C@@H]2[C@H](NC(=O)/C(=N\OC(C)(C)C(=O)[O-])c3csc(N)n3)C(=O)N2C(C(=O)[O-])=C1C[N+]12CCC[C@H]1CN(C(=O)C(=O)c1ccc(O)c(O)c1Cl)CC2.[Na+] (stereo partly shown) [Compound I-76] | 0.5 | ≤ 0.031 | 0.25 | 4 |
| C[C@@H]1S[C@@H]2[C@H](NC(=O)/C(=N\OC(C)(C)C(=O)[O-])c3csc(N)n3)C(=O)N2C(C(=O)[O-])=C1C[N+]1(C)[C@@H]2CC[C@H]1C[C@@H](N1C(=O)c3cc(O)c(O)cc3C1=O)C2.[Na+] (stereo partly shown) [Compound I-77] | 0.5 | ≤ 0.031 | 0.25 | 1 |
| C[C@@H]1S[C@@H]2[C@H](NC(=O)/C(=N\OC(C)(C)C(=O)[O-])c3csc(N)n3)C(=O)N2C(C(=O)[O-])=C1C[N+]12CCC(CNC(=O)C(=O)c3cc(O)c(O)c(F)c3)(CC1)CC2.[Na+] [Compound I-81] | 2 | ≤ 0.031 | 0.5 | 8 |
| C[C@@H]1S[C@@H]2[C@H](NC(=O)/C(=N\OC(C)(C)C(=O)[O-])c3csc(N)n3)C(=O)N2C(C(=O)[O-])=C1C[N@+]1(C)[C@@H]2CC[C@H]1C[C@@H](NC(=O)C(=O)c1cc(O)c(O)c(F)c1)C2.[Na+] [Compound I-83] | 0.5 | ≤ 0.031 | 0.063 | 2 |
